From patent US11072612B2, “NLRP3 modulators” (INNATE TUMOR IMMUNITY, INC., priority 2016, dated 2021)

Legend:
Format in all cases: cell-based
[1] = target: T1, hNLRP3 (Homo sapiens, UniProt Q96P20); test: hNLRP3 agonist assay: IL-1β production in PMA-differentiated THP-1 cells (ELISA); conditions: Table 2, 4 hours, IL-1β by ELISA
T1 construct: THP-1 cells were purchased from the American Type Culture Collection; host or cells: THP-1 cells, PMA-differentiated

[2] = target: T2, TLR7 (Homo sapiens, UniProt Q9NYK1); test: TLR7 EC50 assay; conditions: Table 2
T2 sequence (Q9NYK1 27-1049): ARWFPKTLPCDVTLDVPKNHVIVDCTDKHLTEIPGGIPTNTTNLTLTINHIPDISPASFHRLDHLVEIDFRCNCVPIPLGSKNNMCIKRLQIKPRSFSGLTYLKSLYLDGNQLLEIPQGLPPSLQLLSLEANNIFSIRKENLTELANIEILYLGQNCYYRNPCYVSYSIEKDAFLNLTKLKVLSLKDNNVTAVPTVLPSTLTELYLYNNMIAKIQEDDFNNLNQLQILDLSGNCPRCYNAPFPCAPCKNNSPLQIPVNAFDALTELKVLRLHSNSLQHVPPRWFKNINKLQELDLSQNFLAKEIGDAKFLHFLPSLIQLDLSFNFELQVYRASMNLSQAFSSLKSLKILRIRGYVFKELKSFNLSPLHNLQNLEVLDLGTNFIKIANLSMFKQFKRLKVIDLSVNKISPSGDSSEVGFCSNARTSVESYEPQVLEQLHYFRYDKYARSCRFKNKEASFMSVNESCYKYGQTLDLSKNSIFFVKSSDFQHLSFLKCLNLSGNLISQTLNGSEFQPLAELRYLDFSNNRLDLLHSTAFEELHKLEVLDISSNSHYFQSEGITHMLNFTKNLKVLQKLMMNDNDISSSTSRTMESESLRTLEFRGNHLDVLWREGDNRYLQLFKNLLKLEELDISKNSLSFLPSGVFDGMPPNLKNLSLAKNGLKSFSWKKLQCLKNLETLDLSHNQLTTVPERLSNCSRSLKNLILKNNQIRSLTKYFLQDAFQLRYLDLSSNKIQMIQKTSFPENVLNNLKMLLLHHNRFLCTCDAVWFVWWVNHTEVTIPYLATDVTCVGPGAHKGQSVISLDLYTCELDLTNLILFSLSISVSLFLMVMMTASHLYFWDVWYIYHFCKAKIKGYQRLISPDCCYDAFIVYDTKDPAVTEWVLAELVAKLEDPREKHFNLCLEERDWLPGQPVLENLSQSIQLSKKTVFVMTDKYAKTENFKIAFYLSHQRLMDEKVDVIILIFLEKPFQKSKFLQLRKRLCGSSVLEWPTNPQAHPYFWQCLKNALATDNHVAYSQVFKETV

[3] = target: T3, TLR8 (Homo sapiens, UniProt Q9NR97); test: TLR8 EC50 assay; conditions: Table 2
T3 sequence (Q9NR97 27-1041): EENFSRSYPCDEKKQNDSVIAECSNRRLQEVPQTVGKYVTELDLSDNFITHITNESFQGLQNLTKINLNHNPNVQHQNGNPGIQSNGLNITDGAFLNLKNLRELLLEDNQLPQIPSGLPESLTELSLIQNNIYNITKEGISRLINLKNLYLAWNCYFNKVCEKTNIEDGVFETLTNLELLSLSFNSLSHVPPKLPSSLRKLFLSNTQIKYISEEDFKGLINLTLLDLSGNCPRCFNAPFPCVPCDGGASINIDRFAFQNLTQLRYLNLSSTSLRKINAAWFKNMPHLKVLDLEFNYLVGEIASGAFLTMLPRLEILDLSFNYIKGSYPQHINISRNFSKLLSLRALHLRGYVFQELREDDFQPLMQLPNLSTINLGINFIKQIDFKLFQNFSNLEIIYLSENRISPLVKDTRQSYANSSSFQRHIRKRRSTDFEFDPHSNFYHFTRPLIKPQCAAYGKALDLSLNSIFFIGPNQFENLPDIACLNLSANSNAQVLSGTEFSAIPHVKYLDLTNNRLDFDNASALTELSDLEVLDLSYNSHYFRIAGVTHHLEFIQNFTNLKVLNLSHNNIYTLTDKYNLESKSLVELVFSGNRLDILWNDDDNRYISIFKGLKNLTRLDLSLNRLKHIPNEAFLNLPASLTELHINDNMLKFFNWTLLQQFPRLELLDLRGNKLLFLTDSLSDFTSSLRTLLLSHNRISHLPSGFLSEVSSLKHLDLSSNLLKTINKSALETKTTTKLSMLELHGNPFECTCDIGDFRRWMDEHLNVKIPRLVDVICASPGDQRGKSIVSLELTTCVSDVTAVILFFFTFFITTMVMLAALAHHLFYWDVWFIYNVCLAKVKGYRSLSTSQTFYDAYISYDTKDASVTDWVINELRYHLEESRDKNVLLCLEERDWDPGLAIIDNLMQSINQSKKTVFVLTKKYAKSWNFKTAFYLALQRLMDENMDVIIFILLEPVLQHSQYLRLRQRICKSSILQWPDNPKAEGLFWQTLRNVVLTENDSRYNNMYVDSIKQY

T1 sequence (Q96P20 whole entry): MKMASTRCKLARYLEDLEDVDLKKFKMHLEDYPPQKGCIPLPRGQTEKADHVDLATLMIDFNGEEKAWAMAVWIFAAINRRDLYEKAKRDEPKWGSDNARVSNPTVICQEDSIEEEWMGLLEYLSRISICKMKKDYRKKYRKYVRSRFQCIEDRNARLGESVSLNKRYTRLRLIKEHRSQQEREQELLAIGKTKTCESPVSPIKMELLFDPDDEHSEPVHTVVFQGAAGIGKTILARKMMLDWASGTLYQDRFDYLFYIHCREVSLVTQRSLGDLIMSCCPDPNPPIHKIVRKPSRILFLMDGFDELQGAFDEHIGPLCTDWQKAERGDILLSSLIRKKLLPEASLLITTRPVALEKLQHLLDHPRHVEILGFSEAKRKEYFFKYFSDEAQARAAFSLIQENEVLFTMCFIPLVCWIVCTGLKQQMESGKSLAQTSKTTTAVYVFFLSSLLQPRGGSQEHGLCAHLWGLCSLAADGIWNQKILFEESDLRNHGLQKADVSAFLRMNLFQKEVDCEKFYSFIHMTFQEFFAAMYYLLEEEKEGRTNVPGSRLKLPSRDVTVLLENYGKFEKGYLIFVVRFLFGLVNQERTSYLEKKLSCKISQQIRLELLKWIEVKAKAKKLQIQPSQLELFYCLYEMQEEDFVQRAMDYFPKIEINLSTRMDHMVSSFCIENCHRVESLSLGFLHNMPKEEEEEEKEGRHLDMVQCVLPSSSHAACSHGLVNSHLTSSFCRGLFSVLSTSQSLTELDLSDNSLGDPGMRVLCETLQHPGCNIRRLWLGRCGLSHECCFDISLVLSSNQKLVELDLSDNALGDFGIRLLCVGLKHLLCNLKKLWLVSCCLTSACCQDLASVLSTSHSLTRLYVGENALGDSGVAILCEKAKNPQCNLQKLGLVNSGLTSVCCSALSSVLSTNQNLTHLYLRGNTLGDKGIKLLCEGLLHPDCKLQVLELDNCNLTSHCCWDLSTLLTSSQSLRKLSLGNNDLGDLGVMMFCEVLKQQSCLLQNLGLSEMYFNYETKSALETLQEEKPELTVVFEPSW

Compound | EC50 [1] [µM] | EC50 [2] [µM] | EC50 [3] [µM]
Cn1nccc1-c1ccc2c(c1)nc(N)c1nc(CCCO)[nH]c12 [Compound 190, 3-[4-amino-7-(2-methylpyrazol-3-yl)-1H-imidazo[4,5-c]quinolin-2-yl]propan-1-ol] | 20 to 100 | > 100 | > 100
Nc1nc2cc(-c3cncc4ccccc34)ccc2c2[nH]c(CCCO)nc12 [Compound 192, 3-(4-amino-7-isoquinolin-4-yl-1H-imidazo[4,5-c]quinolin-2-yl)propan-1-ol] | > 100 | > 100 | > 100
Cn1cc(-c2ccc3c(c2)nc(N)c2nc(CCCO)[nH]c23)cn1 [Compound 193, 3-[4-amino-7-(1-methylpyrazol-4-yl)-1H-imidazo[4,5-c]quinolin-2-yl]propan-1-ol] | 20 to 100 | > 100 | > 100
Cc1cc(C)n(-c2ccc3c(c2)nc(N)c2nc(CCCO)[nH]c23)n1 [Compound 194, 3-[4-amino-7-(3,5-dimethylpyrazol-1-yl)-1H-imidazo[4,5-c]quinolin-2-yl]propan-1-ol] | 20 to 100 | 20 to 100 | > 100
Nc1nc2cc(-c3cnoc3)ccc2c2[nH]c(CCCO)nc12 [Compound 195, 3-[4-amino-7-(1,2-oxazol-4-yl)-1H-imidazo[4,5-c]quinolin-2-yl]propan-1-ol] | > 100 | > 100 | > 100
Nc1nc2cc(C3CCOCC3)ccc2c2[nH]c(CCCO)nc12 [Compound 196, 3-[4-amino-7-(oxan-4-yl)-1H-imidazo[4,5-c]quinolin-2-yl]propan-1-ol] | > 100 | > 100 | > 100
COc1ccccc1-c1ccc2c(c1)nc(N)c1nc(CCCO)[nH]c12 [Compound 201, 3-[4-amino-7-(2-methoxyphenyl)-1H-imidazo[4,5-c]quinolin-2-yl]propan-1-ol] | > 100 | > 100 | > 100
N#Cc1ccccc1-c1ccc2c(c1)nc(N)c1nc(CCCO)[nH]c12 [Compound 202, 2-[4-amino-2-(3-hydroxypropyl)-1H-imidazo[4,5-c]quinolin-7-yl]benzonitrile] | > 100 | > 100 | > 100
Cc1ccncc1-c1ccc2c(c1)nc(N)c1nc(CCCO)[nH]c12 [Compound 213, 3-[4-amino-7-(4-methylpyridin-3-yl)-1H-imidazo[4,5-c]quinolin-2-yl]propan-1-ol] | > 100 | 1 to 20 | > 100
Cc1ncccc1-c1ccc2c(c1)nc(N)c1nc(CCCO)[nH]c12 [Compound 214, 3-[4-amino-7-(2-methylpyridin-3-yl)-1H-imidazo[4,5-c]quinolin-2-yl]propan-1-ol] | > 100 | 20 to 100 | > 100
CC(C)(C)OC(=O)N1CCC(c2nc3c(N)nc4cc(-n5cccn5)ccc4c3[nH]2)CC1 [Compound 218] | ≤ 1 | > 100 | > 100

More lines, now with the values ahead:

EC50 [1] [µM] | EC50 [2] [µM] | EC50 [3] [µM] | Compound
> 100 | > 100 | > 100 | Nc1nc2cc(-c3cnc4ccccc4c3)ccc2c2[nH]c(CCCO)nc12 [Compound 191, 3-(4-amino-7-quinolin-3-yl-1H-imidazo[4,5-c]quinolin-2-yl)propan-1-ol]
> 100 | > 100 | > 100 | Cc1ccccc1-c1ccc2c(c1)nc(N)c1nc(CCCO)[nH]c12 [Compound 199, 3-[4-amino-7-(2-methylphenyl)-1H-imidazo[4,5-c]quinolin-2-yl]propan-1-ol]
> 100 | > 100 | > 100 | Nc1nc2cc(-c3ccccc3Cl)ccc2c2[nH]c(CCCO)nc12 [Compound 200, 3-[4-amino-7-(2-chlorophenyl)-1H-imidazo[4,5-c]quinolin-2-yl]propan-1-ol]
> 100 | > 100 | > 100 | Nc1nc2cc(-c3ccccc3F)ccc2c2[nH]c(CCCO)nc12 [Compound 203, 3-[4-amino-7-(2-fluorophenyl)-1H-imidazo[4,5-c]quinolin-2-yl]propan-1-ol]
> 100 | > 100 | > 100 | Nc1nc2cc(-c3cccc(Cl)c3)ccc2c2[nH]c(CCCO)nc12 [Compound 204, 3-[4-amino-7-(3-chlorophenyl)-1H-imidazo[4,5-c]quinolin-2-yl]propan-1-ol]
20 to 100 | > 100 | > 100 | Cc1cccc(-c2ccc3c(c2)nc(N)c2nc(CCCO)[nH]c23)c1 [Compound 205, 3-[4-amino-7-(3-methylphenyl)-1H-imidazo[4,5-c]quinolin-2-yl]propan-1-ol]
> 100 | > 100 | > 100 | COc1cccc(-c2ccc3c(c2)nc(N)c2nc(CCCO)[nH]c23)c1 [Compound 206, 3-[4-amino-7-(3-methoxyphenyl)-1H-imidazo[4,5-c]quinolin-2-yl]propan-1-ol]
> 100 | > 100 | > 100 | N#Cc1cccc(-c2ccc3c(c2)nc(N)c2nc(CCCO)[nH]c23)c1 [Compound 207, 3-[4-amino-2-(3-hydroxypropyl)-1H-imidazo[4,5-c]quinolin-7-yl]benzonitrile]
> 100 | > 100 | > 100 | Nc1nc2cc(-c3cccc(F)c3)ccc2c2[nH]c(CCCO)nc12 [Compound 208, 3-[4-amino-7-(3-fluorophenyl)-1H-imidazo[4,5-c]quinolin-2-yl]propan-1-ol]
> 100 | > 100 | > 100 | Nc1nc2cc(-c3ccc(Cl)cc3)ccc2c2[nH]c(CCCO)nc12 [Compound 209, 3-[4-amino-7-(4-chlorophenyl)-1H-imidazo[4,5-c]quinolin-2-yl]propan-1-ol]
> 100 | > 100 | > 100 | Cc1ccc(-c2ccc3c(c2)nc(N)c2nc(CCCO)[nH]c23)cc1 [Compound 210, 3-[4-amino-7-(4-methylphenyl)-1H-imidazo[4,5-c]quinolin-2-yl]propan-1-ol]
> 100 | > 100 | > 100 | COc1ccc(-c2ccc3c(c2)nc(N)c2nc(CCCO)[nH]c23)cc1 [Compound 211, 3-[4-amino-7-(4-methoxyphenyl)-1H-imidazo[4,5-c]quinolin-2-yl]propan-1-ol]
> 100 | > 100 | 20 to 100 | Nc1nc2cc(-c3ccc(F)cc3)ccc2c2[nH]c(CCCO)nc12 [Compound 212, 3-[4-amino-7-(4-fluorophenyl)-1H-imidazo[4,5-c]quinolin-2-yl]propan-1-ol]
> 100 | 20 to 100 | 20 to 100 | Nc1nc2cc(-c3cccnc3Cl)ccc2c2[nH]c(CCCO)nc12 [Compound 215, 3-[4-amino-7-(2-chloropyridin-3-yl)-1H-imidazo[4,5-c]quinolin-2-yl]propan-1-ol]
